Experimental data from patent publication US7524487B2, “Compositions and methods for modulating interleukin-10” (University of Maryland, priority 2005, dated 2009).

How the values were obtained:
Sp1 = experiment: EMSA of Sp1 binding to the IL-10 promoter motif, nuclear extracts of BMMφ; type: cell-based, mice; conditions: BMMφ stimulated with LPS 10 ng/ml or LPS+E-IgG for 30 min
Protocol: A. Cells were stimulated with LPS (10 ng/ml) or LPS+E-IgG for 30 min and nuclear extracts were analyzed by EMSA using Sp1 (A) or STAT3 (B) specific probes. C. RAW264.7 cells were stimulated with medium (open bar), E-IgG (dotted bar), LPS (solid bar) or LPS+E-IgG (striped bar) and cytokines measured by ELISA after 6 h. Data represents the mean of triplicate samples±SD. D. RAW264.7 cells were transfected with pRL-IL10-luciferase reporter plasmid (5 ug/ml) and 24 h later stimulated with medium (con), 10 ng/ml LPS (solid bar) or E-IgG+LPS (striped bar) for 4 h. Cells were then lysed and luciferase activity measured. This figure is representative of 3 experiments.
Electrophoretic mobility shift assay (EMSA). Nuclear extracts were prepared from 2×10^7 Mφ using the Nuclear Extraction kit (Panomics, Redwood City, Calif.) following the manufactures protocol. EMSAs were carried out using the EMSA “Gel-Shift” kit (Panomics, Redwood City, Calif.). Briefly, 5 μg of nuclear extract were incubated with biotin-Sp1 or STAT3 probe±unlabelled probe for 30 min at 20° C., and then run on a 6% polyacrylamide gel. Oligo/protein complexes were transferred to Biodyne B membrane (Pall, Ann Arbor, Mich.). Following transfer, membranes were incubated with streptavidin-HRP and protein visualized by chemiluminescence.

IL-10 promoter = experiment: DNase I accessibility of the IL-10 promoter (nucleosome −2) by QRT-PCR; type: cell-based, mice; conditions: BMMφ pre-treated with PD98059 15 μM for 1 hour, IC plus LPS 10 ng/mL for 60 min
Protocol: FIG. 23 are graphs showing enhanced chromatin accessibility following ERK activation. (A) BMMφ were stimulated with IC plus LPS (10 ng/mL) for 0, 15, 30, 60, and 120 min. Nuclei were isolated at each time point post-stimulation and treated with or without MNase. DNA was purified and analyzed for the presence of sequences corresponding to nucleosomes −2 and −12 by QRT-PCR. The data were graphically plotted as percentage of MNase accessibility relative to the samples of stimulation at zero time point. (B) BMMφwere pre-treated with PD98059 (15 μM) (open bars) or drug vehicle control (solid bars) for 1 hour and then stimulated with IC plus LPS (10 ng/mL) for 60 min. Nuclei were isolated from each group and treated with or without DNase I followed by extraction of genomic DNA. […] The data were expressed as percentage of DNase I accessibility relative to undigested genomic DNA sample and graphically plotted for each treated group. […]
DNase I sensitivity assayed by Real-time PCR. DNase I accessibility was determined as previously described (Goriely, et al. 2003. Blood 101:4894-4902; Rao, et al. 2001. J. Immunol. 167:4494-4503.) with minor modifications. […]
MNase accessibility assay was performed on cells grown in 100-mm tissue culture dishes that were stimulated with LPS/IC. […] DNase I accessibility was determined as previously described (Lucas, M., X. Zhang, et al. 2005. J. Immunol. 175:469).

Sp1 binding to the IL-10 promoter (EMSA) (Sp1): no effect
reduction of sensitivity to DNase I at nucleosome −2 (IL-10 promoter): greater than half
SMILES: COc1cccc(-c2cc(=O)c3ccccc3o2)c1N [PD98059]
